US5843339A, “Phosphites and their production and use” (Sumitomo Chemical Company, Limited, priority 1995, dated 1998)

Columns and labels:
[1] = Heat stability test of linear low-density polyethylene: processing stability (gel build-up time on kneading); settings: 0.1 parts test compound per 100 parts LLDPE + 0.1 parts hydrotalcite; pellets extruded at 250° C., kneaded under nitrogen at 240° C., 100 rpm, laboplasto mill; time to maximum torque
Description: Heat stability test of linear low-density polyethylene
Using a 30 mm .phi. mono axial extruder, the above formulation was extruded into pellets at 250° C. The resultant pellets were kneaded under a nitrogen atmosphere at 240° C., 100 rpm, using a laboplasto mill, and the time required for a torque value due to crosslinking to reach a maximum value (gel build-up time, minute) was measured. The results are shown in Table 1 as "processing stability".
The longer the gel build-up time, the more crosslinking on kneading is inhibited and the better the processing stability becomes.

[2] = Hydrolysis resistance: same gel build-up test with test compound stored in a thermo-hygrostat; type: physicochemical; settings: test compound allowed to stand in thermo-hygrostat (40° C., 80%) for 7 days, then same test as processing stability
Description: Using a test compound which was allowed to stand in a thermo-hygrostat (40° C., 80%) for 7 days, the same test was conducted and the hydrolytic stability of the compound was evaluated. The results are shown in Table 1 as "hydrolysis resistance".
The processing stability of the hydrolyzed compound is deteriorated. Therefore, the better the processing stability after treatment, the better the hydrolysis resistance becomes.

[3] = Dispersion properties: visual transparency of press-molded sheet; type: physicochemical; parameters: key: .circleincircle.: Good; .largecircle.: Slightly good; Δ: Slightly opaque; X: Opaque; settings: pellets press-molded at 250° C., sheet of 1 mm thickness
Description: The resultant pellets were press-molded at 250° C. to obtain a sheet having a thickness of 1 mm, and transparency of this sheet was visually evaluated. The results are shown in Table 1 as "dispersion properties".
The better the transparency, the better the dispersion properties in the polymer become.
In Table 1, dispersion properties are indicated according to the following criteria.

| SMILES | Processing stability (gel build-up time) [1] [min] | Hydrolysis resistance (gel build-up time after treatment of the test compound) [2] [min] | Dispersion properties (transparency of sheet, visually evaluated) [3] |
| --- | --- | --- | --- |
| CC(C)(C)c1ccc(OP2OCC3(CO2)COP(Oc2ccc(C(C)(C)C)cc2C(C)(C)C)OC3)c(C(C)(C)C)c1 (stereo not drawn) [Compound P-1, bis(2,4-di-t-butylphenyl)pentaerythritol diphosphite] | 7 | 7 | X |
| CC(C)(C)c1ccc(OP(Oc2ccc(C(C)(C)C)cc2C(C)(C)C)Oc2ccc(C(C)(C)C)cc2C(C)(C)C)c(C(C)(C)C)c1 [Compound P-2, tris(2,4-di-t-butylphenyl)phosphite] | 7 | 4 | X |
| Cc1cc2c(c(C(C)(C)C)c1)OP(OCCOC(=O)CCc1cc(C)c(O)c(C(C)(C)C)c1)Oc1c(cc(C)cc1C(C)(C)C)C2 [Compound P-3, 2-[3-(3-t-butyl-4-hydroxy-5-methyphenyl)propionyloxy]ethyl 2,2'-methylenebis(6-t-butyl-4-methylphenyl)phosphite] | 16 | 16 | .largecircle. |
| Cc1cc(Cc2cc(C)cc(C(C)(C)C)c2OP2Oc3c(cc(C)cc3C(C)(C)C)Cc3cc(C)cc(C(C)(C)C)c3O2)c(O)c(C(C)(C)C)c1 [Compound P-4, 2-[2-(4,8-di-t-butyl-2,10-dimethyl-12H-dibenzo[d,g][1,3,2]dioxaphosphosin-6-yl)oxy-3-t-butyl-5-methylbenzyl]-6-t-butyl-4-methylphenol] | 15 | 15 | .largecircle. |
| Cc1cc(CCC(=O)OCCOp2oc3c(C(C)(C)C)cc(C(C)(C)C)cc3c3cc(C(C)(C)C)cc(C(C)(C)C)c3o2)cc(C(C)(C)C)c1O [KA-1, 3-(3-t-butyl-4-hydroxy-5-methylphenyl)propionic acid 2-[(2,4,8,10-tetra-t-butyldibenzo[d,f][1,3,2]dioxaphosphepin-6-yl)oxy]ethyl] | 21 | 21 | .circleincircle. |
